# Assay results published in patent publication US20110015066A1, “Herbicidal Composition” (priority 2008, published 2011).
# Legend:
# broad leaf weeds = assay: Field trial in wheat: weed population and biomass of broad leaf weeds; format: in vivo
# Experimental: Parts and percentages are by weight unless otherwise indicated. Field tests were made at various trial sites. The performance of the new combination herbicide according to the present invention (Clodinafop 15% and metsulfuron methyl 1%), Metsulfuron methyl 20% WP and Clodinafop-propargyl 15% WP was evaluated against weed flora in wheat crop during rabi season. Recommended package of practices for wheat crop was followed to raise the crop. The herbicide treatments were applied as post emergence spray at 35 days after sowing (DAS). The data on weed population (number/m^2) and dry matter (gm/m^2) was taken after 60 days after sowing and at the harvest. Similar yields (quintal/hectare i.e. q/ha.) and yield attributed parameters like plant height, number of effective tiller, number of grain per ear-head, test weight were recorded at harvest. A statistical analysis of the entire data was carried out.
# The major weed flora recorded in the experimental field were grasses like Phalaris minor and Avena fatua and broad leaf weeds namely Chenopodium album, Rumex sp., Convolvulus arvensis, Melilotus alba, Medicago denticulata, Fumaria sp. Vicia sativa and Anagalis arvensis.
# Susceptible plants = settings: after post-emergence treatment; cited from earlier work
# [1] = Accelerated Heat Stability of compositions: active ingredient content before and after 14 days; format: physicochemical; settings: 1 %
# Experimental: The numbers of formulations were made up as described in above examples. The concentration of Clodinafop propargyl (15%)+Metsulfuron methyl (1%) 16% WP was tested for its active stability at elevated temperature (54±2° C.) and at 3 different pH ranges as shown below.
# The storage stability of the compositions according the present invention was compared with the storage stability of compositions individually and in combination as Tank, mix and plant mixes. The term Tank mix means that clodinafop-propargyl and metsulfuron methyl are mixed in the tank at the time of spraying. The term plant mix means that ready mix of the clodinafop-propargyl and metsulfuron methyl are diluted in the tank before spraying.
compound,measurement,setting,value
"COC(=O)c1ccccc1S(=O)(=O)NC(=O)Nc1nc(C)nc(OC)n1 [metsulfuron methyl, methyl 2-(4-methoxy-6-methyl-1,3,5-triazin-2-ylcarbamoylsulfamoyl)benzoate]",control of broad leaf weeds (in words),broad leaf weeds,superior control of broad leaf weeds only
same,time in which susceptible plants are killed,Susceptible plants,7 to 21 days
same,Metsulfuron methyl % degradation,[1]; pH 4.5,24.67%
same,Metsulfuron methyl % degradation,[1]; pH 6.8,12.64%
same,Metsulfuron methyl % degradation,[1]; pH 8.5,4.82%
